Values of other authors, collected in US20120134921A1, “SOLID COMPOSITIONS COMPRISING 5-AMINOLEVULINIC ACID” (Photocure ASA, priority 2009, published 2012).

What was measured:
dysplastic lesions = conditions: sterile solution administered as local probe, chronic colitis rat models
[1] = test system: pre-malignant conditions in the colon; conditions: enemas, 5-ALA hexyl ester in sterile phosphate buffered saline

Structure (SMILES): CCCCCCOC(=O)CCC(=O)CN [5-ALA hexyl ester, n-hexyl aminolevulinic acid ester]
- Sensitivity of detection of dysplastic lesions by fluorescence (dysplastic lesions): 60%
- Specificity of detection of dysplastic lesions by fluorescence (dysplastic lesions): 51%
- More polyps detected by PDD than with white light endoscopic imaging [1]: 28%
